What was measured:
GSKΔexon9+11 = test: Inhibition of endogenous Tau [pS396] phosphorylation in COS-7 cells transfected with GSKΔexon9+11 cDNA (ELISA); type: cell-based, human
Experimental: Lymphocytes (as described in Example 3) or transfected cells were lysed in 1× Lysis buffer (50 mM Tris.HCl (pH 7.4), 150 mM NaCl, 1 mM PMSF, 1× complete cocktail protease inhibitor (Boehringer Mannheim) and 0.05% Triton X-100. Approximately 2-25 μg of total protein was used to assay for total Tau or Tau phosphorylated at serine residue 396 using the Human Tau or Human Tau [pS396] ELISA kit respectively (Biosource International, CA, USA).
COS-7 cells plated onto 12 well plates at concentration of 1×10^5 cells/well and allowed to recover for 24 hours. Each well was transfected with either the GSKΔexon9 or GSKΔexon9+11 cDNA constructs (as described in Example 4) using Lipofectamine 2000.

[1] = biological target: Tau (endogenous Tau protein in COS-7 cells); test: cell-based or functional assay

levels of Tau [pSer396] by ELISA in COS-7 cells transfected with GSK-3β isoform cDNAs [1] [fold] | Compound | increase in sensitivity of GSKΔexon9+11 compared with GSKΔexon9 (GSKΔexon9+11; ratio of IC50 values, COS-7 cells) [fold] | suppressing the level of tau phosphorylation in a cell expressing GSK-3β lacking exon 9 and exon 11 vs lacking exon 9 (GSKΔexon9+11; result in words)
 | Cn1sc(=O)n(Cc2ccccc2)c1=O [TDZD8] | 2 | at a level greater than observed in a cell expressing GSK-3β lacking exon 9
2.5 | GSK-3β lacking exon 9 and exon 11 (GSKΔexon9+11 isoform) (from UniProt P49841 1-420) |  | 

From patent US20090041862A1, “Detecting disease association with aberrant glycogen synthase kinase 3beta expression” (priority 2004, published 2009)
